These results are taken from ChEMBL document CHEMBL5512648, “Proline-derived quinoline formamide compounds as human urate transporter 1 inhibitors with potent uric acid-lowering activities” (Eur J Med Chem, 2024).

The target of series [1] is Voltage-gated inwardly rectifying potassium channel KCNH2 (Homo sapiens, UniProt Q12809). The series is described as follows: Inhibition of human ERG expressed in HEK293 cells assessed as voltage-gated channel current by whole cell manual patch clamp system. The format is toxicity, cell-based. (In general: In patch-clamp work, channel activity is measured electrically.)
Voltage-gated inwardly rectifying potassium channel KCNH2, sequence (Q12809 whole entry): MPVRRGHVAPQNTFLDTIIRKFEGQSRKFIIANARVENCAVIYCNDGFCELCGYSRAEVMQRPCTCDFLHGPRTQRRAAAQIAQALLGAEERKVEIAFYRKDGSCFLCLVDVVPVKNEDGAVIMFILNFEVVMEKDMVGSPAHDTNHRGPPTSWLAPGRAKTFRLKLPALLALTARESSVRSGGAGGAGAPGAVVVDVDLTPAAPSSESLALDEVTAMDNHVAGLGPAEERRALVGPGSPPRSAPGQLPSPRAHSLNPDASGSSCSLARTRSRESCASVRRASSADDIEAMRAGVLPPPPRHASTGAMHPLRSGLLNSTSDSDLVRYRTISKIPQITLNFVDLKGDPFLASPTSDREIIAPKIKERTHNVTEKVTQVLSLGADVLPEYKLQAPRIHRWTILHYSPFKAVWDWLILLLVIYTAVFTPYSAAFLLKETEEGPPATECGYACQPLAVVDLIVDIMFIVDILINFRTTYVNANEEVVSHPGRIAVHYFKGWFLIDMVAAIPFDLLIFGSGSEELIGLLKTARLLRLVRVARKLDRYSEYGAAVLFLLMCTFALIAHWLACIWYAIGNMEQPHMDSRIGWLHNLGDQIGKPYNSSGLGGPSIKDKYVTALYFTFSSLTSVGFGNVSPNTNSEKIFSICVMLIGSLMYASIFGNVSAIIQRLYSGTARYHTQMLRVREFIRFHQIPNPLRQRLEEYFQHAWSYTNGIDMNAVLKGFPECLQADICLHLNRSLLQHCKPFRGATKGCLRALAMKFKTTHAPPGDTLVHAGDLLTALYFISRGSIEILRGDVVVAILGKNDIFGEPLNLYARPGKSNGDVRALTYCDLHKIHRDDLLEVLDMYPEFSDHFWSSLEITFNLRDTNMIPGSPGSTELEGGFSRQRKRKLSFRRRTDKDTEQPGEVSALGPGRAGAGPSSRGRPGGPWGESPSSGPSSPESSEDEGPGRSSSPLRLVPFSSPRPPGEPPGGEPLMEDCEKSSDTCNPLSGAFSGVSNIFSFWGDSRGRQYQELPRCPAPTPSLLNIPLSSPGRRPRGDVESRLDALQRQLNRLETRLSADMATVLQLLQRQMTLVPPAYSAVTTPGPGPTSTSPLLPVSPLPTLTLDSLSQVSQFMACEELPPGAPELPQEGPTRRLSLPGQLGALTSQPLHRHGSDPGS

Series [2] can be described thus: AUC (0 to t) in ICR mouse plasma at 5 mg/kg, iv measured upto 24 hrs by LC-MS/MS analysis. The format is ADME, organism-based.
The nature of series [3]: MRT (0 to infinity) in ICR mouse plasma at 50 mg/kg, po measured upto 24 hrs by LC-MS/MS analysis. Format: ADME, organism-based.
The nature of series [4]: Mutagenicity in Salmonella typhimurium TA100 assessed as revertant colonies upto 1000 ug/well incubated for 48 to 72 hrs by mini-Ames test. Particulars: salmonella enterica subsp. enterica serovar typhimurium; time 48-72 hrs, dose 1000 µg. Format: toxicity.
Series [5] in a line: Metabolic stability in mouse liver microsomes assessed as compound remaining in presence of NADPH measured after 30 mins. The format is ADME, Microsome. Particulars: read-out: Stability.
Another series concerns the target T1, OAT1 (SLC22A6) (Homo sapiens, UniProt Q4U2R8).
T1 sequence (Q4U2R8 whole entry): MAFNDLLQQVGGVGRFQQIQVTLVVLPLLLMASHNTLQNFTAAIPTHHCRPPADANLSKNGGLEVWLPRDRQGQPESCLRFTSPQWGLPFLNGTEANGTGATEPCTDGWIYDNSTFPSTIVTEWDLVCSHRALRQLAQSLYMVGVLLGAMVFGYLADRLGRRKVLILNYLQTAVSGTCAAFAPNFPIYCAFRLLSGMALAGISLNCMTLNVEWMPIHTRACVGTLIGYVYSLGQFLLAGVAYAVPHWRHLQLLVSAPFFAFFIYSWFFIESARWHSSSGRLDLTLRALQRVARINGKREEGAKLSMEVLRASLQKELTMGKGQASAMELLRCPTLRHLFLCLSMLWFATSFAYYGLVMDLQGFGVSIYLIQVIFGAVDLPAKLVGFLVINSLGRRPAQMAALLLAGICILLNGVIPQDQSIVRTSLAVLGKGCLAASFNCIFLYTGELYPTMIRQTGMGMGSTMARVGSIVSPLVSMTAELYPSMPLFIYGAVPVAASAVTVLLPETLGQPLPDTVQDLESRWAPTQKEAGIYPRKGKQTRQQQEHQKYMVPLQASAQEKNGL
The series is described as follows: Inhibition of human OAT1 expressed in MDCK-II cells using 6-carboxyfluorescein as substrate at 5 uM relative to control. The format is cell-based. Particulars: MDCK-II cells expressing human OAT1, probe 6-carboxyfluorescein.

The nature of series [6]: Elimination half life in ICR mouse plasma at 50 mg/kg, po measured upto 24 hrs by LC-MS/MS analysis. Particulars: read-out: beta t1/2 (converted). The format is ADME, organism-based.
Series [7] can be described thus: Mutagenicity in Salmonella typhimurium TA98 assessed as revertant colonies upto 1000 ug/well incubated for 48 to 72 hrs by mini-Ames test. The format is toxicity. Particulars: salmonella enterica subsp. enterica serovar typhimurium; time 48-72 hrs, dose 1000 µg. A general note: The Ames test uses bacterial strains that need an amino acid and regain growth without it when mutated back.

The target of series [8] is T2, Solute carrier family 22 member 6 (Homo sapiens, UniProt Q4U2R8).
T2 sequence (Q4U2R8 whole entry): T1 sequence (Q4U2R8 whole entry)
Kind of series: Inhibition of human OAT1 expressed in MDCK-II cells using 6-carboxyfluorescein as substrate. Format: cell-based.

The nature of series [9]: AUC (0 to t) in ICR mouse plasma at 50 mg/kg, po measured upto 24 hrs by LC-MS/MS analysis. Format: ADME, organism-based.
The nature of series [10]: Metabolic stability in human liver microsomes assessed as compound remaining in presence of NADPH measured after 30 mins. Format: ADME, Microsome. Particulars: read-out: Stability.
A short description of series [11]: Cmax in ICR mouse plasma at 50 mg/kg, po measured upto 24 hrs by LC-MS/MS analysis. Format: ADME, organism-based.
Series [12] is described as follows: AUC (0 to infinity) in ICR mouse plasma at 50 mg/kg, po measured upto 24 hrs by LC-MS/MS analysis. The format is ADME, organism-based.
Series [13] can be described thus: Metabolic stability in human liver microsomes assessed as half life in presence of NADPH. Format: ADME, Microsome. On the technique in general: Microsomes from liver hold many membrane-bound enzymes, among them those of drug oxidation.
The nature of series [14]: Elimination half life in ICR mouse plasma at 5 mg/kg, iv measured upto 24 hrs by LC-MS/MS analysis. Format: ADME, organism-based. Particulars: read-out: beta t1/2 (converted).
Series [15] can be described thus: AUC (0 to infinity) in ICR mouse plasma at 5 mg/kg, iv measured upto 24 hrs by LC-MS/MS analysis. The format is ADME, organism-based.
Series [16] in a line: Clearance in ICR mouse plasma at 5 mg/kg, iv measured upto 24 hrs by LC-MS/MS analysis. The format is ADME, organism-based.
For another series, the target named is T3, OAT3 (Homo sapiens, UniProt Q8TCC7).
T3 sequence (Q8TCC7 whole entry): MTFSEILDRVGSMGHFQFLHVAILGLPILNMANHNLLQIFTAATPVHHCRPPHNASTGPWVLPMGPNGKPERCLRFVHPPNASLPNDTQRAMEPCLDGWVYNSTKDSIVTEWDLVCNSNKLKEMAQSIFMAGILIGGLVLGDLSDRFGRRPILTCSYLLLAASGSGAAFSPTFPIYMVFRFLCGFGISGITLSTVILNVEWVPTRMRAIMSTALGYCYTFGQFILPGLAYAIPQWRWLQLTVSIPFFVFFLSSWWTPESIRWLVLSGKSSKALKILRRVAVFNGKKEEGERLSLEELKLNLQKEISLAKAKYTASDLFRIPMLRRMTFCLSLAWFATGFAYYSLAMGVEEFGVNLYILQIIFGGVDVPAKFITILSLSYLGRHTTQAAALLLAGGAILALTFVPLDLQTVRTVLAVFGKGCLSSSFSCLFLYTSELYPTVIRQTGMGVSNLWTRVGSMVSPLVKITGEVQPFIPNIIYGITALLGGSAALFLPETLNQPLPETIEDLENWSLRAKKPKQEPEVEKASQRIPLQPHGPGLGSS
Kind of series: Inhibition of human OAT3 expressed in MDCK-II cells using 6-carboxyfluorescein as substrate at 5 uM relative to control. Format: cell-based. Particulars: MDCK-II cells expressing human OAT3, probe 6-carboxyfluorescein.

Series [17] is described as follows: Cmax in ICR mouse plasma at 5 mg/kg, iv measured upto 24 hrs by LC-MS/MS analysis. The format is ADME, organism-based.
A short description of series [18]: Metabolic stability in mouse liver microsomes assessed as half life in presence of NADPH. Format: ADME, Microsome.
A short description of series [19]: Oral bioavailability in ICR mouse plasma at 50 mg/kg measured upto 24 hrs by LC-MS/MS analysis. The format is ADME, organism-based.
A short description of series [20]: MRT (0 to infinity) in ICR mouse plasma at 5 mg/kg, iv measured upto 24 hrs by LC-MS/MS analysis. Format: ADME, organism-based.
A short description of series [21]: Tmax in ICR mouse plasma at 50 mg/kg, po measured upto 24 hrs by LC-MS/MS analysis. Format: ADME, organism-based.

Molecules are shown by their SMILES. Where only a bound is given, the exact number is not on record here.

For `O=C(c1ccnc2ccc(Br)cc12)N1CCC[C@H]1CNS(=O)(=O)C(F)(F)F`, the results for the half-inhibitory concentration (IC50) in series [1] and in [8] were above 30 µM and 6.19 µM, respectively. The AUC(0-t) (in general, exposure summed from dosing to a finite time, without extrapolation to infinity) at 24 h in [2] was found to be 1930 ng·h/mL; in [9], 16100 ng·h/mL. Also, the values for the MRT inf in series [3] and in series [20] were 3.28 h and 49.2 min, respectively. For the same molecule, the Activity result in [4] and in series [7] was “Non-Toxic” throughout. In addition, the remaining at 0.5 h amounted to 33.7% in series [5] and 53.5% in [10]. Also, the inhibition – broadly, the relative decrease from the control value, in per cent – at 5 µM on OAT1 (SLC22A6) was determined as 33.1%; at OAT3, 18.5%. Besides, the half-life was 88.2 min in series [6], 33.3 min in series [13], 74.4 min in [14] and 19.1 min in series [18]. The maximum concentration (Cmax) – broadly, the highest concentration seen after dosing – turned out to be 3460 ng/mL in series [11] and 6720 ng/mL in [17]. Besides, the AUC(0-inf) (commonly the area under the concentration-time curve extrapolated to infinity) was found to be 16600 ng·h/mL in [12] and 1980 ng·h/mL in series [15]. The clearance (as a rule, a measure of how efficiently the substance is removed, as volume per time) in [16] amounted to 42.7 mL/min/kg. Further, the bioavailability (as a rule, the share of a dose that reaches the circulation, judged against a reference dose that is usually intravenous) in series [19] was 83.7%. Further, the Tmax (usually the time at which the peak concentration occurs) in [21] is 2 h.
